# Literature values as cited in US11059901B2, “Compositions and methods related to xCT antibodies” (AGIL VAX, INC., priority 2017, dated 2021).
# Experiments:
# xCT = biological target: T1, xCT (Homo sapiens, UniProt Q9UPY5)
# T1 sequence (Q9UPY5 1-501): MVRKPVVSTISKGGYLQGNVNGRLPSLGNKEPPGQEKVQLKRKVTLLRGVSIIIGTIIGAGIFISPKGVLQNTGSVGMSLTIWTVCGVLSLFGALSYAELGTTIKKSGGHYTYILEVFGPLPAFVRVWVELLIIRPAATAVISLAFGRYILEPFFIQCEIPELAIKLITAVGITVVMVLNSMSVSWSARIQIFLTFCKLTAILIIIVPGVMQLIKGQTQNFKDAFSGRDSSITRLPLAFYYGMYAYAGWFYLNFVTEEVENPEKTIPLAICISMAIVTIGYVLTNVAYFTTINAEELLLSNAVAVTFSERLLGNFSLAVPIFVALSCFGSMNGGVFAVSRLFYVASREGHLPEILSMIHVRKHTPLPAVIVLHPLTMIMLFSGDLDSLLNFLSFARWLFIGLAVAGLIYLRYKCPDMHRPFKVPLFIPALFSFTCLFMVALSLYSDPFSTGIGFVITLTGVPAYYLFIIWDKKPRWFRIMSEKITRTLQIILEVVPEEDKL
# T1 sequence (P08195 1-529 partner): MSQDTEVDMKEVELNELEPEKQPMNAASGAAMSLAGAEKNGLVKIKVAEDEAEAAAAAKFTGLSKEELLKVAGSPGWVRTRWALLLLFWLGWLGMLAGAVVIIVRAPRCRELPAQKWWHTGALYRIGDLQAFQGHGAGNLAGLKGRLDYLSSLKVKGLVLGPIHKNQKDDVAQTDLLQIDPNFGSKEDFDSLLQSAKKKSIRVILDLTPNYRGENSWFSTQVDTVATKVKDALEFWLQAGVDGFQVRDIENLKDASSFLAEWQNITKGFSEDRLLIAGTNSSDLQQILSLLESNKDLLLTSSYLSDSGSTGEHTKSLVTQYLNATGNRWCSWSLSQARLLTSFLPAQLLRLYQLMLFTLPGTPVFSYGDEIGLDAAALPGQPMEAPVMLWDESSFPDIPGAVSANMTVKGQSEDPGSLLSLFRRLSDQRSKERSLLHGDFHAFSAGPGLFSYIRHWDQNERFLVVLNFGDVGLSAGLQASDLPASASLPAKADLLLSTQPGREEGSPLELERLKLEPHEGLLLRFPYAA
# [1] = under physiological conditions
smiles,measurement,setting,value
"O=C(O)c1cc(/N=N/c2ccc(S(=O)(=O)Nc3ccccn3)cc2)ccc1O [SASP, sulfasalazine]",metastatic foci,xCT; animal models of breast cancer metastasis,significant decreases
same,frequency of CSC,xCT; in vivo,reductions
same,solubility,[1],insoluble
same,stability,[1],labile
